In article PMC11365140 (Cell & Bioscience, 2024):
“Also recorded” adds a separate entry of the source. Bridge positions count the residues as written; N and C are the ends. Ends that are not written are not given here.

Key:
INS-1E cells = experiment: Insulin secretion from INS-1E cells; assay type: cell-based, rat; settings: 100 nM, 1 h, 37 °C, 16.8 mM glucose, 5 × 10^4 cells/well; HTRF; 3 technical replicates (Fig. 1E)
Protocol: (§1) Cell culture and hormone secretion
(§2) The INS-1E cells were cultured in RPMI 1640 supplemented with 10% FBS, the αTC1-9 cells were cultured in low glucose DMEM supplemented with 10% FBS and the MIN6 cells were cultured in high glucose DMEM supplemented with 10% FBS. Cells were grown in 96-well plates at a density of 5 × 10^4 cells (INS-1E and αTC1-9) or 2 × 10^4 cells (MIN6) per well. After preincubation for 30 min at 37 °C in KRBB, the cells were incubated with either 0.1% DMSO or compounds for 1 h at 37 °C in KRBB containing either 16.8 mM or 2.8 mM glucose. […] For co-culturing of INS-1E and αTC1-9 cells, RPMI 1640 supplemented with 10% FBS was used, both cell densities were 2.5 × 10^4 cells per well in 96-well plates.

MIN6 cells = experiment: Insulin secretion from MIN6 cells; assay type: cell-based, mouse; settings: 100 nM, 1 h, 37 °C, 16.8 mM glucose, 2 × 10^4 cells/well; HTRF; 3 technical replicates (Fig. 1F)
Protocol: as §1, §2

C57BL/6J mice [1] = experiment: Oral glucose tolerance test (OGTT), blood glucose; assay type: in vivo, mouse; settings: AVP 1 mg/kg i.p., 15 min before 1.5 g/kg oral glucose; 8 mice/group (Fig. 5A, 5B)
Protocol: (§3) Oral glucose tolerance test and insulin detection
(§4) For oral glucose tolerance test (OGTT), mice were fasted overnight and then given either 0.1% DMSO in normal saline (vehicle) or 1 mg/kg AVP and 10 mg/kg Exendin (9–39) (n = 8 per treatment group) via intraperitoneal injection. A glucose bolus was delivered (1.5 g/kg orally) 15 min later. Blood was collected from a tail nick at designated time points, and plasma glucose levels were determined with a glucose meter. To detect insulin level, blood was collected from the retro-orbital plexus of mice 15 min after glucose administration (n = 4 per treatment group) and detected with an ELISA kit for mouse insulin (Crystal Chem, #90080).

islet β cells = settings: cytokine-induced apoptosis; cited from earlier work
Excerpt: (§5) AVP regulates the hypothalamic-pituitary-adrenal (HPA) axis, stimulating the release of corticotropin-releasing hormone (CRH) through V1bR activation, thereby promoting CRH-induced insulin secretion.

[2] = test system: mouse and rat pancreas, and isolated mouse islets; settings: mouse and rat pancreas, and isolated mouse islets; cited from earlier work
Excerpt: as §5

isolated mouse islets [3] = experiment: Insulin secretion from isolated mouse islets; assay type: cell-based, mouse (C57BL/6J); settings: for insulin secretion from isolated islets: 2 h
[4] = test system: co-culture of INS-1E and αTC1-9 cells; experiment: Glucagon secretion from co-cultured INS-1E and αTC1-9 cells; assay type: cell-based, rat (INS-1E) and mouse (αTC1-9); settings: 100 nM, 1 h, 16.8 mM glucose, both 2.5 × 10^4 cells/well (Fig. 3G)
Protocol: as §1, §2

C57BL/6J mice [5] = experiment: Plasma insulin in OGTT; assay type: in vivo, mouse; settings: AVP 1 mg/kg i.p.; blood 15 min after glucose administration; ELISA; 4 mice/group (Fig. 5C)
Protocol: as §3, §4

αTC1-9 cells = experiment: Glucagon secretion from αTC1-9 cells; assay type: cell-based, mouse; settings: 100 nM, 1 h, 16.8 mM glucose, 5 × 10^4 cells/well; HTRF; 3 technical replicates (Fig. 3F)
Protocol: as §1, §2

isolated mouse islets [6] = experiment: Glucagon secretion from isolated mouse islets; assay type: cell-based, mouse (C57BL/6J)
Protocol: Hormone secretion from isolated islets
Islets were isolated from anesthetized male C57BL/6J mice (8 wk old). 1 mg/mL Collagenase P (Roche, #11213873001) solution was injected into the pancreas via the bile duct, and the pancreas was digested at 37 °C for 15 min. The mixture was centrifuged at 800 rpm for 3 min to collect the precipitate, which was then washed three times with HBSS (5.4 mM KCl, 0.3 mM Na2HPO4, 0.4 mM KH2PO4, 4.2 mM NaHCO3, 1.3 mM CaCl2, 0.5 mM MgCl2, 0.6 mM MgSO4, 137 mM NaCl, 5.6 mM D-glucose, pH 7.4). Then, the precipitate was re-suspended in HBSS and filtered through a 70 μm filter to obtain islets. The detached islets were cultured overnight in RPMI 1640 supplemented with 10% fetal bovine serum (FBS). The islets were transferred to 48-well plates and starved with KRBB (118.5 mM NaCl, 2.54 mM CaCl2, 1.19 mM KH2PO4, 4.74 mM KCl, 25 mM NaHCO3, 1.19 mM MgSO4, 10 mM HEPES, pH 7.4) containing 0.5% BSA for 60 min. Subsequently, the islets were incubated with 0.1% dimethyl sulfoxide (DMSO) or compounds for a duration of 2 h at 37 °C in 1 mL KRBB containing 16.8 mM or 2.8 mM glucose. Supernatants were collected, and the insulin concentrations were measured using HTRF Insulin kit (Cisbio, #62INSPEC) and an Envision Plate Reader (PerkinElmer).

[7] = test system: co-culture of INS-1E and αTC1-9 cells; experiment: Insulin secretion from co-cultured INS-1E and αTC1-9 cells; assay type: cell-based, rat (INS-1E) and mouse (αTC1-9); settings: 1 h
Protocol: as §1, §2
Specific sequences of shRNAs (Table 1) targeting GCGR or GLP-1R mRNA were constructed into pLKO.1 puro lentiviral vector (Addgene, #8453). Lentiviral vectors and packaging vectors were transfected into HEK293T cells by FuGENE HD Transfection Reagent (Promega, #E2312) to produce virus particles. INS-1E cells were seeded onto 6-well plates at a density of 5 × 10^5 cells per well and incubated with viruses and 5 μg/mL polybrene for 48 h. Transfected INS-1E cells were collected for real-time qPCR and co-culture experiments.

[8] = test system: pancreas of mouse and rat, and the α cell line InR1G9; settings: cited from earlier work
Excerpt: However, this regulatory mechanism is impaired in individuals with type 1 diabetes. Compared to wild-type mice, V1b receptor k ...

Arginine vasopressin (CYFQNCPRG-NH2; disulfide 1-6; ends not checked; UniProt P01185 20-28, looked up) [AVP, neuropeptide composed of nine amino acids]
insulin secretion from INS-1E cells (INS-1E cells): failed to induce insulin release; also recorded: could not directly induce insulin secretion from INS-1E cells
insulin secretion from MIN6 cells (MIN6 cells): failed to induce insulin release
blood glucose levels during OGTT (C57BL/6J mice [1]): significantly lowered blood glucose levels during the OGTT
protection of islet β cells (islet β cells): confer protection on islet β cells against cytokine-induced apoptosis
insulin secretion [2]: enhance insulin secretion
insulin secretion from isolated islets (isolated mouse islets [3]; 100 nM, AVP compared with GLP-1, 3 technical replicates (Fig. 1D)): stimulated similar level of glucose-dependent insulin secretion from freshly isolated islets as GLP-1
insulin secretion from isolated islets, glucose dependence (isolated mouse islets [3]; 100 nM, low (2.8 mM) and high (16.8 mM) glucose (Fig. 3D, 3E)): only induced insulin secretion from the islets in high-glucose medium
insulin secretion from isolated islets (isolated mouse islets [3]; various concentrations of AVP, 37 °C, 10 islets/well, 16.8 mM glucose KRBB, HTRF, mean ± SEM, 3 technical replicates (Fig. 1A)): induced insulin secretion in a dose-dependent manner in high glucose condition
glucagon secretion from co-culture [4]: induce secretion of glucagon and insulin in high-glucose condition
plasma insulin in OGTT (C57BL/6J mice [5]): significantly stimulated the release of insulin
glucagon secretion from αTC1-9 cells (αTC1-9 cells): could induce glucagon release from αTC1-9 cells
glucagon secretion from isolated islets, glucose dependence (isolated mouse islets [6]; AVP (100 nM), low (2.8 mM) and high (16.8 mM) glucose (Fig. 3C)): induced glucagon secretion from the isolated islets in low- and high-glucose conditions
glucagon secretion from isolated islets (isolated mouse islets [6]; various concentrations of AVP, 2 h, 16.8 mM glucose, 10 islets/well, 3 technical replicates (Fig. 3A)): induced dose-dependent secretion of glucagon
insulin secretion from co-culture ([7]; 100 nM, 16.8 mM glucose, both 2.5 × 10^4 cells/well (Fig. 3H)): induce secretion of glucagon and insulin in high-glucose condition
AVP-induced insulin secretion from co-culture after Gcgr knockdown ([7]; INS-1E infected with shRNA-Gcgr, AVP (1 nM), 16.8 mM glucose (Fig. 4K)): no significant effect
AVP-induced insulin secretion from co-culture after Glp1r knockdown ([7]; INS-1E infected with shRNA-Glp1r, AVP (1 nM), 16.8 mM glucose (Fig. 4L)): significantly attenuated AVP-induced insulin secretion
glucagon secretion [8]: stimulate glucagon secretion
